Source: PMC10526274, “Epithelial-Immune Cell Crosstalk Determines the Activation of Immune Cells In Vitro by the Human Cathelicidin LL-37 at Low Physiological Concentrations” (Biomolecules, 2023)
Where “and” joins values, the source holds several entries; their conditions need not be identical. Equal values may be shown once.

Tested on: monocyte-derived dendritic cells (moDCs)
Assay: Multiplex xMAP cytokine levels, moDCs alone stimulated with LL-37
Assay type: cell-based, human
Details: 1 µM LL-37, 24 h
Method: Peripheral blood mononuclear cells (PBMCs) from a healthy donor were purchased from the American Type Culture Collection (ATCC PCS-800-011). Blood monocytes were isolated from PBMCs by plastic adhesion. Mature monocyte-derived dendritic cells (moDCs) were generated in vitro from peripheral blood monocytes, according to Nair et al.. Briefly, monocytes were cultured in a humidified CO2-incubator (5% CO2, 37 °C) in the complete RPMI-1640 medium (Gibco) with 10% FBS, antibiotics, and supplemented with a cytokine cocktail containing 500 U/mL rhIL-4 and 800 U/mL rhGM-CSF (both Sci-Store, Moscow, Russia). On the third day, the medium was replaced by the same fresh medium with FBS, antibiotics, and the cytokine cocktail. Induction of maturation of the immature monocyte-derived dendritic cells was performed on the 5th day by replacing the medium with the complete RPMI-1640 medium (Gibco) with 10% FBS and antibiotics, supplemented with a cytokine cocktail containing 500 U/mL rhIL-4, 800 U/mL rhGM-CSF (both Sci-Store, Moscow, Russia), and 100 U/mL rhTNF-α (Sigma-Aldrich), and subjected to subsequent incubation of the culture for 4 more days.
Primary blood monocytes, moDCs, and NKT cells were seeded in 600 µL of complete RPMI-1640 with 10% Human AB serum (Capricorn Scientific, Ebsdorfergrund, Germany) and supplemented with 1X antibiotic–antimycotic solution into the wells of 24-well plates at a density of 3–7 × 10^5 cells/well 24 h before the experiment. Then, 24 h later, the medium in each well was replaced by the same medium with 1 µM of LL-37 for the sample wells or fresh medium alone for the control wells, and the permeable inserts with the Caco-2 monolayer with TEER > 400 Ω × cm^2, containing 400 μL of the complete medium in their apical chamber, were immediately placed into the appropriate wells. Also, inserts with the Caco-2 monolayer were placed in cell-free wells of 24-well plates in the same complete RPMI-1640 medium with or without 1 µM of LL-37 as controls. Cells were kept in a CO2-incubator (5% CO2, 37 °C) for another 24 h. Then, culture medium from each well was collected, centrifuged, and frozen at −70 °C.
To quantitatively evaluate a broad spectrum of analytes secreted by human cell cultures at the protein level, multiplex xMAP technology was used. The chosen panel (cat. #HCYTA-60K-PX48, Merck, Darmstadt, Germany) included 48 different magnetic beads with primary antibodies to the following cytokines, chemokines, and growth factors: CCL11 (Eotaxin-1), Flt-3 ligand, CX3CL1 (Fractalkine), sCD40L, FGF-2, EGF, GROα, GM-CSF, G-CSF, IL-1RA, IL-1α, IL-1β, IL-2, IL-3, IL-4, IL-5, IL-6, IL-7, CXCL8 (IL-8), IL-9, IL-10, IL-12p40, IL-12p70, IL-13, IL-15, IL-17A (CTLA8), IL-17E (IL-25), IL-17F, IL-18, IL-22, IL-27, IFNγ, IFNα2, CXCL10 (IP-10), CCL2 (MCP-1), CCL7 (MCP-3), CCL22 (MDC), CXCL9 (MIG), CCL3 (MIP-1α), CCL4 (MIP-1β), CCL5 (RANTES), M-CSF, PDGF-AA, PDGF-AB/BB, TNFα, TNFβ, TGFα, and VEGF-A. The assay was performed in accordance with the manufacturer’s instructions with overnight incubation of the samples with primary antibodies, and the plate was read on a MAGPIX System (Merck) using the xPONENT 4.2 software (Merck). The acquired fluorescence data were analyzed by the MILLIPLEX Analyst v5.1 software (Merck), which realized an advanced curve-fitting algorithm. Levels of the analytes in control and experimental samples were compared with an unpaired two-sample t-test using GraphPad Prism v.8.0.1 (GraphPad Software, Inc., San Diego, CA, USA). The p-values ≤ 0.05 were considered significant.

## LL-37: the only human cathelicidin, host defense antimicrobial peptide of 37 a.a. residues, produced by solid-phase peptide synthesis
n=2, control 0.57
  FLT-3L level: 0.51 pg/mL
n=2, control 0.91
  IL-2 level: 0.91 pg/mL
n=2, control 1.14
  IL-4 level: 1.31 pg/mL
n=2, control 1.49
  TNFb level: 1.3 pg/mL
n=2, control 1.55
  IL-3 level: 0.91 pg/mL
n=2, control 1.61
  IL-18 level: 0.63 pg/mL
n=2, control 2.82
  VEGFa level: 4.61 pg/mL
n=2, control 4.12
  IL-15 level: 4.36 pg/mL
n=2, control 4.63
  IL-5 level: 3.23 pg/mL
n=2, control 5.89
  IFNg level: 5.02 pg/mL
n=2, control 7.65
  EGF level: 6.75 pg/mL
n=2, control 8.22
  IL-9 level: 7.84 pg/mL
n=2, control 9.37
  IL-1b level: 7 pg/mL
n=2, control 10.16
  IFNa2 level: 11.65 pg/mL
n=2, control 11.72
  IL-1RA level: 11.72 pg/mL
n=2, control 13.02
  GM-CSF level: 10.06 pg/mL
n=2, control 13.22
  IL-22 level: 11.11 pg/mL
n=2, control 20.3
  G-CSF level: 13.54 pg/mL
n=2, control 24.8
  PDGF-AA level: 25.69 pg/mL
n=2, control 25.07
  TGF-a level: 20.52 pg/mL
n=2, control 27.8
  IL-6 level: 30.65 pg/mL
n=2, control 28.72
  Fractalkine level: 25.92 pg/mL
n=2, control 36.28
  IL-13 level: 29.87 pg/mL
n=2, control 40.81
  TNFa level: 40.03 pg/mL
n=2, control 48.6
  FGF-2 level: 47.27 pg/mL
n=2, control 51.39
  GROa level: 53.94 pg/mL
n=2, control 55.75
  IL-27 level: 59.83 pg/mL
n=2, control 61.22
  IL-12 (p40) level: 61.22 pg/mL
n=2, control 66.42
  IP-10 level: 57.64 pg/mL
n=2, control 72.4
  PDGF-AB/BB level: 70.07 pg/mL
n=2, control 89.23, p = 0.0058
  IL-10 level: 62 pg/mL and 62.12 pg/mL
n=2, control 98.84
  sCD40L level: 95.47 pg/mL
n=2, control 200.96
  M-GSF level: 185.65 pg/mL
n=2, control 423.03
  RANTES level: 417.4 pg/mL
n=2, control 573.83
  MCP-3 level: 545.69 pg/mL
n=2, control 2042
  MIP-1b level: 2065 pg/mL
n=2, control 2533
  MIP-1a level: 2368 pg/mL
n=2, control 3176
  MCP-1 level: 2573 pg/mL
n=2, control 4102
  IL-8 level: 4051 pg/mL
n=2, control 27057
  MIG level: 23618 pg/mL
n=2, control <0.30
  IL-7 level: <0.30↓ pg/ml
n=2, control <0.70
  IL-17A level: <0.70↓ pg/ml
n=2, control <1.30
  IL-1a level: <1.30↓ pg/ml
n=2, control <1.71
  IL-12 (p70) level: <1.71↓ pg/ml
n=2, control <2.91
  Eotaxin level: <2.91↓ pg/ml
n=2, control <12.19
  IL-17F level: <12.19↓ pg/ml
n=2, control <19.43
  IL-17E/IL-25 level: <19.43↓ pg/ml
n=2, control >14590
  MDC level: >14590↑ pg/ml
